From the NIST ThermoML archive (doi:10.1021/je900244c)
Where “and” joins values, the source holds several entries; their conditions need not be identical. Identical values can stand only once.

Assay: xn = mol fraction of the nth substance listed
Conditions: 323.15 K, Gas, Buoyancy - hydrostatic balance with magnetic suspension - two sinkers

CC(C)C [2-methylpropane] + CCC
Conditions | mass density
660.6 kPa, x2 = 0.244 | 15.487 kg/m3
670 kPa, x2 = 0.244 | 15.744 kg/m3
670 kPa, x2 = 0.249 | 15.714 kg/m3
670.1 kPa, x2 = 0.249 | 15.719 kg/m3
679.7 kPa, x2 = 0.244 | 16.015 kg/m3
680.3 kPa, x2 = 0.249 | 15.998 kg/m3
680.4 kPa, x2 = 0.249 | 16.006 kg/m3
690.2 kPa, x2 = 0.244 | 16.31 kg/m3
690.2 kPa, x2 = 0.249 | 16.277 kg/m3 and 16.285 kg/m3
691.1 kPa, x2 = 0.244 | 16.328 kg/m3
700.1 kPa, x2 = 0.244 | 16.592 kg/m3
700.3 kPa, x2 = 0.249 | 16.571 kg/m3
700.4 kPa, x2 = 0.249 | 16.571 kg/m3
709.8 kPa, x2 = 0.244 | 16.868 kg/m3
710 kPa, x2 = 0.249 | 16.835 kg/m3
710.1 kPa, x2 = 0.249 | 16.843 kg/m3
710.3 kPa, x2 = 0.244 | 16.875 kg/m3
720.3 kPa, x2 = 0.249 | 17.129 kg/m3
720.4 kPa, x2 = 0.249 | 17.137 kg/m3
720.6 kPa, x2 = 0.244 | 17.177 kg/m3
730 kPa, x2 = 0.249 | 17.416 kg/m3
730.3 kPa, x2 = 0.249 | 17.408 kg/m3
730.4 kPa, x2 = 0.244 | 17.456 kg/m3
730.5 kPa, x2 = 0.244 | 17.456 kg/m3
739.8 kPa, x2 = 0.249 | 17.687 kg/m3
740 kPa, x2 = 0.249 | 17.697 kg/m3
740.4 kPa, x2 = 0.244 | 17.75 kg/m3
749.8 kPa, x2 = 0.244 | 18.022 kg/m3
750 kPa, x2 = 0.249 | 17.989 kg/m3 and 17.996 kg/m3
750.2 kPa, x2 = 0.244 | 18.029 kg/m3
759.7 kPa, x2 = 0.249 | 18.276 kg/m3
759.9 kPa, x2 = 0.249 | 18.276 kg/m3
761.2 kPa, x2 = 0.244 | 18.357 kg/m3
769.7 kPa, x2 = 0.244 | 18.602 kg/m3
769.9 kPa, x2 = 0.249 | 18.577 kg/m3
770 kPa, x2 = 0.249 | 18.577 kg/m3
770.4 kPa, x2 = 0.499 | 16.983 kg/m3
770.7 kPa, x2 = 0.499 | 16.982 kg/m3
780 kPa, x2 = 0.249 | 18.871 kg/m3
780.2 kPa, x2 = 0.499 | 17.239 kg/m3
780.3 kPa, x2 = 0.499 | 17.244 kg/m3
780.5 kPa, x2 = 0.249 | 18.894 kg/m3
790.6 kPa, x2 = 0.244 | 19.228 kg/m3
790.6 kPa, x2 = 0.499 | 17.513 kg/m3
799.9 kPa, x2 = 0.249 | 19.467 kg/m3
800.2 kPa, x2 = 0.499 | 17.765 kg/m3 and 17.769 kg/m3
810.5 kPa, x2 = 0.499 | 18.042 kg/m3
820.2 kPa, x2 = 0.499 | 18.299 kg/m3
820.4 kPa, x2 = 0.499 | 18.307 kg/m3
830.3 kPa, x2 = 0.499 | 18.572 kg/m3
840.3 kPa, x2 = 0.499 | 18.844 kg/m3
840.4 kPa, x2 = 0.499 | 18.848 kg/m3
850.3 kPa, x2 = 0.499 | 19.121 kg/m3
860.2 kPa, x2 = 0.499 | 19.387 kg/m3
860.4 kPa, x2 = 0.499 | 19.398 kg/m3
870.4 kPa, x2 = 0.499 | 19.669 kg/m3
879.9 kPa, x2 = 0.499 | 19.938 kg/m3
880.4 kPa, x2 = 0.499 | 19.948 kg/m3
890.2 kPa, x2 = 0.499 | 20.228 kg/m3
900.1 kPa, x2 = 0.499 | 20.506 kg/m3
900.6 kPa, x2 = 0.499 | 20.517 kg/m3
910.1 kPa, x2 = 0.499 | 20.784 kg/m3
920.3 kPa, x2 = 0.499 | 21.078 kg/m3
920.6 kPa, x2 = 0.499 | 21.087 kg/m3
930.3 kPa, x2 = 0.499 | 21.359 kg/m3
939.7 kPa, x2 = 0.499 | 21.637 kg/m3
939.8 kPa, x2 = 0.499 | 21.635 kg/m3
950.6 kPa, x2 = 0.499 | 21.949 kg/m3
960.2 kPa, x2 = 0.499 | 22.222 kg/m3
960.3 kPa, x2 = 0.499 | 22.242 kg/m3
970.3 kPa, x2 = 0.499 | 22.521 kg/m3
978.9 kPa, x2 = 0.499 | 22.767 kg/m3
979.6 kPa, x2 = 0.499 | 22.791 kg/m3
